The source of these data is patent US20090163577A1, “METHODS AND COMPOSITIONS FOR ANTAGONIZING ANTI-APOPTOTIC Bcl-2-FAMILY PROTEINS” (Burnham Institute for Medical Research, priority 2007, published 2009).

Some results are limits rather than exact numbers.

The target of one test is T1, Mcl-1 (Homo sapiens, UniProt Q07820).
T1 construct: lacking their C-terminal transmembrane domains (last 20 amino-acids) (“ΔTM”); made in house; host or cells: E. coli XL-1 Blue (pGEX 4T-1)
The test can be described thus: FPA competitive FITC-Bid BH3 peptide displacement, Mcl-1. It counts as binding. Conditions: 100 nM GST-Mcl-1, 5 nM FITC-Bid BH3 peptide, read-out: IC50 (μM) for Gambogic acid. The text has this: (A) Structure of gambogic acid.
Fluorescence Polarization Assays (FPAs).
Competitive Peptide Displacement Assays.

In another test the test system is BIR3 of XIAP. The test can be described thus: FPA, rhodamine-SMAC peptide binding to BIR3 of XIAP. Conditions: not shown.
Test [1] has as its system Jurkat T-cell acute lymphoblastic leukemia. The test can be described thus: Apoptosis, Annexin V/PI staining, Jurkat. It counts as cell-based. Conditions: Homo sapiens, within 20-24 hrs, read-out: concentration required to induce apoptosis of 50% of the cells. The procedure:
(§1) Gambogic acid was used to treat HL-60 (black symbols) or Jurkat (white symbols) cells at concentrations of 0, 0.1, 0.2, 0.5, 2, 5 μM (from left to right).
(§2) Cell Culture, Transfection, and Apoptosis Assays.
(§3) GA overcomes cytoprotection of Bcl-2 in leukemia cells. GA has cytotoxic activity against various tumor cell lines in culture and induces apoptosis (Zhang et al., Bioorg. Med. Chem. 12:309-317, 2004; Zhao et al., Biol. Pharm. Bull. 27:998-1003, 2004). We confirmed the apoptosis-inducing activity of GA using Jurkat T-cell acute lymphoblastic leukemia and HL-60 acute promyelomonocytic leukemia cell lines, using Annexin V/propidium iodide (PI) staining, counting Annexin V+/PT− cells as apoptotic (FIG. 3). The concentration of GA required to induce apoptosis of 50% of the cells within 20-24 hrs was ˜0.2 μM and ˜0.5 μM for Jurkat and HL-60, respectively.

Test [2] relates to HL-60 acute promyelomonocytic leukemia. The test can be described thus: Apoptosis, Annexin V/PI staining, HL-60. As to conditions: Homo sapiens, HL-60, within 20-24 hrs, read-out: concentration required to induce apoptosis of 50% of the cells. It counts as cell-based. As to the method: as §1, §2, §3
In test [3] the test system is prostate cancer cell line PPC1. The test can be described thus: Pro-caspase-3 processing, immunoblot, PPC1. It counts as cell-based. As to conditions: PPC1, 20 hrs, 0 to 10 μM. The procedure: To determine GA's affect on processing of pro-caspase-3, a marker of apoptosis, cells of the prostate cancer cell line PPC1 were treated with gambogic acid at concentrations from 0 to 10 μM. After 20 hrs, the cells were collected and the cell lysates were analyzed by SDS-PAGE/immunoblotting using anti-caspase 3 antibody. GA induced clearly detectable proteolytic processing of pro-caspase-3 at concentrations≧2 μM.
Background: A western blot detects proteins with antibodies after separation by electrophoresis.

The subject of another test is bax+/+ bak+/+ MEFs. The test can be described thus: Cytotoxicity in wild-type MEFs. It counts as cell-based, mouse. As to conditions: 20 hrs.
Excerpt: as §2
GA-induced cytotoxicity is only partly Bcl-2-dependent. Anti-apoptotic Bcl-2-family proteins suppress mitochondria-initiated cell death by inhibiting pro-apoptotic Bcl-2 members Bax and Bak (Kroemer and Reed, Nat. Med. 6:513-519, 2000; Reed, Am. J. Pathol. 157:1415-1430, 2000; Li et al., Cell 116 (2 Suppl.):S57-59, 2 p. following S59). Consequently, when cells are genetically engineered to lack Bax and Bak, then Bcl-2 and related cytoprotective proteins no long display an anti-apoptotic phenotype (Wei et al., Science 292:727-730, 2001). Cells doubly deficient in Bax and Bak therefore provide a context for assessing the mechanism of GA-induced toxicity. GA killed transformed mouse fibroblasts (MEFs) generated from bax+/+ bak+/+ embryos in a concentration-dependent manner (FIG. 6A). […] We conclude therefore that GA induces cytotoxicity through mechanisms that are only partly dependent on Bcl-2-family proteins.

Test [4] deals with Bax, Bcl-2, transferrin receptor. Conditions: cited from earlier work.
The next test concerns dividing cells. As to conditions: cited from earlier work.
The target of the next test is T2, Bfl-1 (Homo sapiens, UniProt Q16548).
T2 sequence (Q16548 1-155 limits assumed): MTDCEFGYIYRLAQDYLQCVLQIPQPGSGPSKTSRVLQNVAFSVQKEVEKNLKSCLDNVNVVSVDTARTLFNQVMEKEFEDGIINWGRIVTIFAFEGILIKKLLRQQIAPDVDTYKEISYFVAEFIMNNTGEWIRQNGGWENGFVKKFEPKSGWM
The test can be described thus: FPA competitive FITC-Bid BH3 peptide displacement, Bfl-1 (also HTS).

T1 sequence (Q07820 1-330 limits assumed): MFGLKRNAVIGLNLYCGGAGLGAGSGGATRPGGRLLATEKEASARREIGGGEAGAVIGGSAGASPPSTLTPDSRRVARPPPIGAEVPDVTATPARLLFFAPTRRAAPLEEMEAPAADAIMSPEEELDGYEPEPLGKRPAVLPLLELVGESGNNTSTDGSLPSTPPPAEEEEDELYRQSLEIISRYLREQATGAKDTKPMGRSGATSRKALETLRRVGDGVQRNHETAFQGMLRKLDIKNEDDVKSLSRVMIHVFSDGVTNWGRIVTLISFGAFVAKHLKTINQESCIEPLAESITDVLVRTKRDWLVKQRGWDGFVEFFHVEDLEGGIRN

For the compound `CC(C)=CCC[C@]1(C)C=Cc2c(O)c3c(c(CC=C(C)C)c2O1)O[C@]12C(=C[C@@H]4C[C@H]1C(C)(C)O[C@@]2(C/C=C(/C)C(=O)O)C4=O)C3=O` [Gambogic acid], the IC50 came to 0.79 µM on Mcl-1 and 1.06 µM at Bfl-1. In addition, the “inhibition of rhodamine-SMAC peptide binding” value in the test with BIR3 of XIAP was “did not inhibit”. Further, the figures for the EC50 in test [1] and in test [2] were ~0.2 µM and ~0.5 µM, respectively. For the same compound, the “concentration giving clearly detectable proteolytic processing of pro-caspase-3” value in [3] is ≥ 2 µM. The “killing of wild-type MEFs” value in the test with bax+/+ bak+/+ MEFs was “killed”. Moreover, the Bax protein levels result in [4] is “increases in Bax protein levels”. The Bcl-2 protein levels entry in test [4] is reported as “reductions in Bcl-2 protein levels”. For the same compound, the transferrin receptor internalization entry in test [4] is listed as “suppressing transferring receptor internalization”. In addition, the cell cycle arrest result with dividing cells is “induces G2/M-phase arrest”. The “suppression of BH3 peptide binding in HTS” value at Bfl-1 (library screen, 10 μM compound) is recorded as ≥ 50%.

Usually IC50 stands for the concentration needed to halve the response being measured.
